Where “and” joins values, the source holds several entries; their conditions need not be identical. Equal values may be shown once.
target: ACVR1 (human) (UniProt Q04771); assay: radiometric filter-binding kinase assay, Kinase HotSpot; details: compound 0.5 µM; ATP 10 µM
Sequence (Q04771 whole entry, looked up): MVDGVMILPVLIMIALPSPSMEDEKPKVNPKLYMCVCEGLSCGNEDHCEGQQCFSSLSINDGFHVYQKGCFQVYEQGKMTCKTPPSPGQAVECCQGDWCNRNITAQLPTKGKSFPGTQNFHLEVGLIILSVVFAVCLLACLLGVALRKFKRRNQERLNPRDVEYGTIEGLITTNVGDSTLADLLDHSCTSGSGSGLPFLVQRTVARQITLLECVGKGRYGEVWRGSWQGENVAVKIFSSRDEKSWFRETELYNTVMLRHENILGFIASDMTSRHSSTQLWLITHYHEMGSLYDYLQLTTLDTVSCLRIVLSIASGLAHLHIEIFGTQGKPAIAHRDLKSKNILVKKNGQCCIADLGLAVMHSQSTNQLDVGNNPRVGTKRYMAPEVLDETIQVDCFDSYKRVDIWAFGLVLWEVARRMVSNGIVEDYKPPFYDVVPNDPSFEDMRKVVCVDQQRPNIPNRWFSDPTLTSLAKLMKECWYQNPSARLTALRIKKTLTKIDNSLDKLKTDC

Row | SMILES | residual activity [%]
1 | COc1cc2c(N3CCN(C(=O)Nc4ccc(OC(C)C)cc4)CC3)ncnc2cc1OCCCN1CCCCC1 | 145
2 | COc1cc2c(cc1OC)-c1[nH]nc(Nc3cccc(F)c3)c1C2 | 107
3 | O=c1cc(N2CCOCC2)oc2c(-c3ccccc3)cccc12 | 91.2
4 | COc1cc2c(Nc3ccc(Br)cc3F)ncnc2cc1OCC1CCN(C)CC1 | 208

target: ACVRL1 (human) (UniProt P37023); assay: as above; details: compound 0.5 µM; ATP 10 µM
Sequence (P37023 whole entry, looked up): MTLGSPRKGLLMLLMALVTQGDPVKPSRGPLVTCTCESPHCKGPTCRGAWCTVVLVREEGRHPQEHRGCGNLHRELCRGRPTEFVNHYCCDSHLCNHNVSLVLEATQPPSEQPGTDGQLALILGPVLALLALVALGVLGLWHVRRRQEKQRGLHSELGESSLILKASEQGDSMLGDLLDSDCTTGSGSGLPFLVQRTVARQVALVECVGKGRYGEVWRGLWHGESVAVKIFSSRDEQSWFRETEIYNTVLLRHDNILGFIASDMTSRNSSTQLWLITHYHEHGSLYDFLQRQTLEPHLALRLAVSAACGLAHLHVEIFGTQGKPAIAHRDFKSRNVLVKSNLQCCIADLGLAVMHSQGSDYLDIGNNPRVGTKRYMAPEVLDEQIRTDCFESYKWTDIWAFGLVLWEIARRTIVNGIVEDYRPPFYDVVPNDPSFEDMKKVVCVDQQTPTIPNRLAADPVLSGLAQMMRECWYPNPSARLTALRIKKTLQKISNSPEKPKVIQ

Row | SMILES | residual activity [%]
5 | COc1cc2c(N3CCN(C(=O)Nc4ccc(OC(C)C)cc4)CC3)ncnc2cc1OCCCN1CCCCC1 | 102
6 | COc1cc2c(cc1OC)-c1[nH]nc(Nc3cccc(F)c3)c1C2 | 102
7 | O=c1cc(N2CCOCC2)oc2c(-c3ccccc3)cccc12 | 91.9
8 | COc1cc2c(Nc3ccc(Br)cc3F)ncnc2cc1OCC1CCN(C)CC1 | 104

target: ALK (human) (UniProt Q9UM73); assay: as above; details: compound 0.5 µM; ATP 10 µM

Row | SMILES | residual activity [%]
9 | CN[C@@H]1C[C@H]2O[C@@](C)([C@@H]1OC)n1c3ccccc3c3c4c(c5c6ccccc6n2c5c31)C(=O)NC4 | 0.859
10 | COc1cc2c(N3CCN(C(=O)Nc4ccc(OC(C)C)cc4)CC3)ncnc2cc1OCCCN1CCCCC1 | 103
11 | COc1cc2c(cc1OC)-c1[nH]nc(Nc3cccc(F)c3)c1C2 | 103
12 | O=c1cc(N2CCOCC2)oc2c(-c3ccccc3)cccc12 | 92.4

target: AURKC (human) (UniProt Q9UQB9); assay: as above; details: compound 0.5 µM; ATP 10 µM

Row | SMILES | residual activity [%]
13 | COc1cc2c(N3CCN(C(=O)Nc4ccc(OC(C)C)cc4)CC3)ncnc2cc1OCCCN1CCCCC1 | 97
14 | COc1cc2c(cc1OC)-c1[nH]nc(Nc3cccc(F)c3)c1C2 | 94.5
15 | O=c1cc(N2CCOCC2)oc2c(-c3ccccc3)cccc12 | 97

target: BRSK1 (human) (UniProt Q8TDC3); assay: as above; details: compound 0.5 µM; ATP 10 µM

Row | SMILES | residual activity [%]
16 | COc1cc2c(N3CCN(C(=O)Nc4ccc(OC(C)C)cc4)CC3)ncnc2cc1OCCCN1CCCCC1 | 103
17 | COc1cc2c(cc1OC)-c1[nH]nc(Nc3cccc(F)c3)c1C2 | 89.3
18 | O=c1cc(N2CCOCC2)oc2c(-c3ccccc3)cccc12 | 103
19 | COc1cc2c(Nc3ccc(Br)cc3F)ncnc2cc1OCC1CCN(C)CC1 | 97.1

target: CAMKK2 (human) (UniProt Q96RR4); assay: as above; details: compound 0.5 µM; ATP 10 µM

Row | SMILES | residual activity [%]
20 | COc1cc2c(N3CCN(C(=O)Nc4ccc(OC(C)C)cc4)CC3)ncnc2cc1OCCCN1CCCCC1 | 101
21 | COc1cc2c(cc1OC)-c1[nH]nc(Nc3cccc(F)c3)c1C2 | 86.8
22 | O=c1cc(N2CCOCC2)oc2c(-c3ccccc3)cccc12 | 83.3
23 | COc1cc2c(Nc3ccc(Br)cc3F)ncnc2cc1OCC1CCN(C)CC1 | 102

target: CSF1R (human) (UniProt P07333); assay: as above; details: compound 0.5 µM; ATP 10 µM

Row | SMILES | residual activity [%]
24 | COc1cc2c(cc1OC)-c1[nH]nc(Nc3cccc(F)c3)c1C2 | 20
25 | O=c1cc(N2CCOCC2)oc2c(-c3ccccc3)cccc12 | 98.3

target: CSNK1A1 (human) (UniProt P48729); assay: as above; details: compound 0.5 µM; ATP 10 µM

Row | SMILES | residual activity [%]
26 | COc1cc2c(N3CCN(C(=O)Nc4ccc(OC(C)C)cc4)CC3)ncnc2cc1OCCCN1CCCCC1 | 101
27 | COc1cc2c(Nc3ccc(Br)cc3F)ncnc2cc1OCC1CCN(C)CC1 | 102

target: DAPK1 (human) (UniProt P53355); assay: as above; details: compound 0.5 µM; ATP 10 µM

Row | SMILES | residual activity [%]
28 | COc1cc2c(N3CCN(C(=O)Nc4ccc(OC(C)C)cc4)CC3)ncnc2cc1OCCCN1CCCCC1 | 103
29 | COc1cc2c(cc1OC)-c1[nH]nc(Nc3cccc(F)c3)c1C2 | 90.7
30 | O=c1cc(N2CCOCC2)oc2c(-c3ccccc3)cccc12 | 90.1
31 | COc1cc2c(Nc3ccc(Br)cc3F)ncnc2cc1OCC1CCN(C)CC1 | 105

target: DYRK4 (human) (UniProt Q9NR20); assay: as above; details: compound 0.5 µM; ATP 10 µM
Sequence (Q9NR20 whole entry, looked up): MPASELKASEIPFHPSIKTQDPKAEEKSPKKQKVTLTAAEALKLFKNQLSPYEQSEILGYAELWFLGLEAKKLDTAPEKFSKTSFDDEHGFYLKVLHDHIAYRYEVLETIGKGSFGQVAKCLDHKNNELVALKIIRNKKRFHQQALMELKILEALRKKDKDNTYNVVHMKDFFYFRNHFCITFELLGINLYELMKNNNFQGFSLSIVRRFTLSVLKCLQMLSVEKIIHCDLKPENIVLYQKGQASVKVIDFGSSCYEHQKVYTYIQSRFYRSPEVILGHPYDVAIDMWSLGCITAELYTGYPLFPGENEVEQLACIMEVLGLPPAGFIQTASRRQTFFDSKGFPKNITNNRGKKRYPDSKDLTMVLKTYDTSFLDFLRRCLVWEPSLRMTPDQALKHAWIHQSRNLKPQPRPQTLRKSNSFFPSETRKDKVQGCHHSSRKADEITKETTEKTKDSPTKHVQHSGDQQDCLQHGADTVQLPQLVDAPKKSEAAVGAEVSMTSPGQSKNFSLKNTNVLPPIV

Row | SMILES | residual activity [%]
32 | COc1cc2c(N3CCN(C(=O)Nc4ccc(OC(C)C)cc4)CC3)ncnc2cc1OCCCN1CCCCC1 | 101
33 | COc1cc2c(cc1OC)-c1[nH]nc(Nc3cccc(F)c3)c1C2 | 92.6
34 | O=c1cc(N2CCOCC2)oc2c(-c3ccccc3)cccc12 | 91.9
35 | COc1cc2c(Nc3ccc(Br)cc3F)ncnc2cc1OCC1CCN(C)CC1 | 102

target: EPHA1 (human) (UniProt P21709); assay: as above; details: compound 0.5 µM; ATP 10 µM

Row | SMILES | residual activity [%]
36 | COc1cc2c(N3CCN(C(=O)Nc4ccc(OC(C)C)cc4)CC3)ncnc2cc1OCCCN1CCCCC1 | 96.1
37 | COc1cc2c(cc1OC)-c1[nH]nc(Nc3cccc(F)c3)c1C2 | 102
38 | O=c1cc(N2CCOCC2)oc2c(-c3ccccc3)cccc12 | 101
39 | COc1cc2c(Nc3ccc(Br)cc3F)ncnc2cc1OCC1CCN(C)CC1 | 31.7

target: FER (human) (UniProt P16591); assay: as above; details: compound 0.5 µM; ATP 10 µM

Row | SMILES | residual activity [%]
40 | CN[C@@H]1C[C@H]2O[C@@](C)([C@@H]1OC)n1c3ccccc3c3c4c(c5c6ccccc6n2c5c31)C(=O)NC4 | 0.816
41 | COc1cc2c(N3CCN(C(=O)Nc4ccc(OC(C)C)cc4)CC3)ncnc2cc1OCCCN1CCCCC1 | 104
42 | COc1cc2c(cc1OC)-c1[nH]nc(Nc3cccc(F)c3)c1C2 | 94
43 | O=c1cc(N2CCOCC2)oc2c(-c3ccccc3)cccc12 | 99.9
44 | COc1cc2c(Nc3ccc(Br)cc3F)ncnc2cc1OCC1CCN(C)CC1 | 95.8

target: FES (human) (UniProt P07332); assay: as above; details: compound 0.5 µM; ATP 10 µM
Sequence (P07332 whole entry, looked up): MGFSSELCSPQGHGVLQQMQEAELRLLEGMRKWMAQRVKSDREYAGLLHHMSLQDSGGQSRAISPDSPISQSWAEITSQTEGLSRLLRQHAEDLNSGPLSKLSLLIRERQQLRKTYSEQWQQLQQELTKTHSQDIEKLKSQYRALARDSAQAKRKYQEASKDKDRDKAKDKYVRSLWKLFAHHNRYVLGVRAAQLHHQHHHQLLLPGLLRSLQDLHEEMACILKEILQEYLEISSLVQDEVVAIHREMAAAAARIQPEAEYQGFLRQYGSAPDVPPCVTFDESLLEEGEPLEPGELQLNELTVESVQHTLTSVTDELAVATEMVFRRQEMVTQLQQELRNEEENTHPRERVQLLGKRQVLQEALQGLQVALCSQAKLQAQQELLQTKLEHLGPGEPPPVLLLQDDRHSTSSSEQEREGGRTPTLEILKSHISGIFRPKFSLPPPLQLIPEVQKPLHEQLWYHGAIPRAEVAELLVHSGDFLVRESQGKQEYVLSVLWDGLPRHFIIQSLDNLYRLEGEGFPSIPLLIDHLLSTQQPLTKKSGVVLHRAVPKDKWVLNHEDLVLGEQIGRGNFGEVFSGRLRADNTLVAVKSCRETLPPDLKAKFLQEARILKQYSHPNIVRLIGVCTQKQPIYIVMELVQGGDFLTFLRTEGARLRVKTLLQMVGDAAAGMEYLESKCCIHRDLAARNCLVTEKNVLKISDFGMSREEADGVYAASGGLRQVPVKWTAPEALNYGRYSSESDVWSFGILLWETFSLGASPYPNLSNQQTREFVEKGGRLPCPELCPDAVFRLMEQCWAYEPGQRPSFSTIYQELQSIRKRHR

Row | SMILES | residual activity [%]
45 | COc1cc2c(N3CCN(C(=O)Nc4ccc(OC(C)C)cc4)CC3)ncnc2cc1OCCCN1CCCCC1 | 105
46 | COc1cc2c(cc1OC)-c1[nH]nc(Nc3cccc(F)c3)c1C2 | 95.6
47 | O=c1cc(N2CCOCC2)oc2c(-c3ccccc3)cccc12 | 96.6
48 | COc1cc2c(Nc3ccc(Br)cc3F)ncnc2cc1OCC1CCN(C)CC1 | 104

target: FGFR4 (human) (UniProt P22455); assay: as above; details: compound 0.5 µM; ATP 10 µM

Row | SMILES | residual activity [%]
49 | COc1cc2c(N3CCN(C(=O)Nc4ccc(OC(C)C)cc4)CC3)ncnc2cc1OCCCN1CCCCC1 | 87.8
50 | COc1cc2c(cc1OC)-c1[nH]nc(Nc3cccc(F)c3)c1C2 | 91.6
51 | O=c1cc(N2CCOCC2)oc2c(-c3ccccc3)cccc12 | 104
52 | COc1cc2c(Nc3ccc(Br)cc3F)ncnc2cc1OCC1CCN(C)CC1 | 90

target: GRK7 (human) (UniProt Q8WTQ7); assay: as above; details: compound 0.5 µM; ATP 10 µM

Row | SMILES | residual activity [%]
53 | CN[C@@H]1C[C@H]2O[C@@](C)([C@@H]1OC)n1c3ccccc3c3c4c(c5c6ccccc6n2c5c31)C(=O)NC4 | 0.737
54 | COc1cc2c(N3CCN(C(=O)Nc4ccc(OC(C)C)cc4)CC3)ncnc2cc1OCCCN1CCCCC1 | 104
55 | COc1cc2c(cc1OC)-c1[nH]nc(Nc3cccc(F)c3)c1C2 | 101
56 | O=c1cc(N2CCOCC2)oc2c(-c3ccccc3)cccc12 | 112
57 | COc1cc2c(Nc3ccc(Br)cc3F)ncnc2cc1OCC1CCN(C)CC1 | 96.4

target: IKBKB (human) (UniProt O14920); assay: as above; details: compound 0.5 µM; ATP 10 µM
Sequence (O14920 whole entry, looked up): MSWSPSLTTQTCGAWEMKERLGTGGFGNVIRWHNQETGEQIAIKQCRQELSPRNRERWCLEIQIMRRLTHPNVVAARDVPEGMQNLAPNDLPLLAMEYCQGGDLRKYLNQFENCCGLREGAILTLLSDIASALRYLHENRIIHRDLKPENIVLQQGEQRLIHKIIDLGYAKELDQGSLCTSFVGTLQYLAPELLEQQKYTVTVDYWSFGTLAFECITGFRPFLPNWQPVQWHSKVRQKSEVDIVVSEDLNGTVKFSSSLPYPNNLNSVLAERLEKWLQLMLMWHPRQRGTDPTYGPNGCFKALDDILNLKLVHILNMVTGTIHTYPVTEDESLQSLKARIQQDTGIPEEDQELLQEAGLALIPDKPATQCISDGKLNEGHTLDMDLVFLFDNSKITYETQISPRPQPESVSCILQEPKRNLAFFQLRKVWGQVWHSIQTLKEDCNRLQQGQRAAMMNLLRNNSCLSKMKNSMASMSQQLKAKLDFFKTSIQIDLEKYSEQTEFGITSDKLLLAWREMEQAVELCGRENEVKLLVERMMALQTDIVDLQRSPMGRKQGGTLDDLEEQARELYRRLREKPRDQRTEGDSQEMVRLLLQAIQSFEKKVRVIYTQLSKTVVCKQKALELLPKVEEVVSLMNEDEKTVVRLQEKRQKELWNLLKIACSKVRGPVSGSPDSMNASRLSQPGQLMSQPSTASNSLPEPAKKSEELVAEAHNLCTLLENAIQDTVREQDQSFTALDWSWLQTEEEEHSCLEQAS

Row | SMILES | residual activity [%]
58 | COc1cc2c(N3CCN(C(=O)Nc4ccc(OC(C)C)cc4)CC3)ncnc2cc1OCCCN1CCCCC1 | 97.3
59 | COc1cc2c(cc1OC)-c1[nH]nc(Nc3cccc(F)c3)c1C2 | 98.2
60 | O=c1cc(N2CCOCC2)oc2c(-c3ccccc3)cccc12 | 100
61 | COc1cc2c(Nc3ccc(Br)cc3F)ncnc2cc1OCC1CCN(C)CC1 | 87.7

target: LIMK1 (human) (UniProt P53667); assay: as above; details: compound 0.5 µM; ATP 10 µM
Sequence (P53667 whole entry, looked up): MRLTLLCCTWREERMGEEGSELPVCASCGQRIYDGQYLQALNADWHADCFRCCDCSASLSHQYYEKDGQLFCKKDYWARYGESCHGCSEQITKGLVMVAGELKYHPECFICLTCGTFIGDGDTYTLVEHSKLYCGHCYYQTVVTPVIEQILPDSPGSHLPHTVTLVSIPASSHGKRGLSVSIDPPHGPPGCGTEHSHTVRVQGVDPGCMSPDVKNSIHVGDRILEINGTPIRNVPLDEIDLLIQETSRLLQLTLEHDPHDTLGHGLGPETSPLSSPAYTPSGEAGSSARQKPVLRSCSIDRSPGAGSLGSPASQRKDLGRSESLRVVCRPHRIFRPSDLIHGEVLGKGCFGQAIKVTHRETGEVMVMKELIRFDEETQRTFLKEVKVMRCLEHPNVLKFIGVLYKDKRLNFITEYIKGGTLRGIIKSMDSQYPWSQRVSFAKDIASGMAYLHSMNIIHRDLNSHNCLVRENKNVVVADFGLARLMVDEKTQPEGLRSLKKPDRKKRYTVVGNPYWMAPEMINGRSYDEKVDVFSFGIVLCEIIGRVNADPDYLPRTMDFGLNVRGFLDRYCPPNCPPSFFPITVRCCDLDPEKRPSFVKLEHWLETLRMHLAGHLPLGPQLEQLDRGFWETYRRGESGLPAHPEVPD

Row | SMILES | residual activity [%]
62 | COc1cc2c(N3CCN(C(=O)Nc4ccc(OC(C)C)cc4)CC3)ncnc2cc1OCCCN1CCCCC1 | 88.6
63 | COc1cc2c(cc1OC)-c1[nH]nc(Nc3cccc(F)c3)c1C2 | 23.3
64 | O=c1cc(N2CCOCC2)oc2c(-c3ccccc3)cccc12 | 98.6
65 | COc1cc2c(Nc3ccc(Br)cc3F)ncnc2cc1OCC1CCN(C)CC1 | 88.1

target: LYN (human) (UniProt P07948); assay: as above; details: compound 0.5 µM; ATP 10 µM
Sequence (P07948 whole entry, looked up): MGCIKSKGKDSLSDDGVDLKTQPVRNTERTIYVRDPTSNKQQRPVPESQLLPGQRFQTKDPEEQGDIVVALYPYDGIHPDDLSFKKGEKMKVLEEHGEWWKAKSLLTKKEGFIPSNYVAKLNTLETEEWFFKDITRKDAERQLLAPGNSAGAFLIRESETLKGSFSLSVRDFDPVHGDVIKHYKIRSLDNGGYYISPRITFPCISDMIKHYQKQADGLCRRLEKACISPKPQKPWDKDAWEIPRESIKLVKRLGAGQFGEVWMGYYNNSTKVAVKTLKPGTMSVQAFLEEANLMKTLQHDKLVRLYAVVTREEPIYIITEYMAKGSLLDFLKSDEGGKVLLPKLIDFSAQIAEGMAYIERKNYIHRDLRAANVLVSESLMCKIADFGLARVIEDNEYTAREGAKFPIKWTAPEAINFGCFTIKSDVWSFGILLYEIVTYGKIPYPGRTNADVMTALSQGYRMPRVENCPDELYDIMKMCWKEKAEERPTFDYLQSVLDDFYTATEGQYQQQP

Row | SMILES | residual activity
66 | CN[C@@H]1C[C@H]2O[C@@](C)([C@@H]1OC)n1c3ccccc3c3c4c(c5c6ccccc6n2c5c31)C(=O)NC4 | 1.18% and 5.72%
67 | COc1cc2c(N3CCN(C(=O)Nc4ccc(OC(C)C)cc4)CC3)ncnc2cc1OCCCN1CCCCC1 | 103% and 95.6%
68 | COc1cc2c(cc1OC)-c1[nH]nc(Nc3cccc(F)c3)c1C2 | 60.2% and 77.5%
69 | O=c1cc(N2CCOCC2)oc2c(-c3ccccc3)cccc12 | 94.5% and 99.4%
70 | COc1cc2c(Nc3ccc(Br)cc3F)ncnc2cc1OCC1CCN(C)CC1 | 10.8% and 16.7%

target: MAP3K14 (human) (UniProt Q99558); assay: as above; details: compound 0.5 µM; ATP 10 µM

Row | SMILES | residual activity [%]
71 | COc1cc2c(N3CCN(C(=O)Nc4ccc(OC(C)C)cc4)CC3)ncnc2cc1OCCCN1CCCCC1 | 98.6
72 | COc1cc2c(cc1OC)-c1[nH]nc(Nc3cccc(F)c3)c1C2 | 105
73 | O=c1cc(N2CCOCC2)oc2c(-c3ccccc3)cccc12 | 101
74 | COc1cc2c(Nc3ccc(Br)cc3F)ncnc2cc1OCC1CCN(C)CC1 | 155

target: MAP3K5 (human) (UniProt Q99683); assay: as above; details: compound 0.5 µM; ATP 10 µM

Row | SMILES | residual activity [%]
75 | CN[C@@H]1C[C@H]2O[C@@](C)([C@@H]1OC)n1c3ccccc3c3c4c(c5c6ccccc6n2c5c31)C(=O)NC4 | 4.72
76 | COc1cc2c(N3CCN(C(=O)Nc4ccc(OC(C)C)cc4)CC3)ncnc2cc1OCCCN1CCCCC1 | 96.6
77 | COc1cc2c(cc1OC)-c1[nH]nc(Nc3cccc(F)c3)c1C2 | 99.9
78 | O=c1cc(N2CCOCC2)oc2c(-c3ccccc3)cccc12 | 96.2
79 | COc1cc2c(Nc3ccc(Br)cc3F)ncnc2cc1OCC1CCN(C)CC1 | 102

target: MAP3K8 (human) (UniProt P41279); assay: as above; details: compound 0.5 µM; ATP 10 µM
Sequence (P41279 whole entry, looked up): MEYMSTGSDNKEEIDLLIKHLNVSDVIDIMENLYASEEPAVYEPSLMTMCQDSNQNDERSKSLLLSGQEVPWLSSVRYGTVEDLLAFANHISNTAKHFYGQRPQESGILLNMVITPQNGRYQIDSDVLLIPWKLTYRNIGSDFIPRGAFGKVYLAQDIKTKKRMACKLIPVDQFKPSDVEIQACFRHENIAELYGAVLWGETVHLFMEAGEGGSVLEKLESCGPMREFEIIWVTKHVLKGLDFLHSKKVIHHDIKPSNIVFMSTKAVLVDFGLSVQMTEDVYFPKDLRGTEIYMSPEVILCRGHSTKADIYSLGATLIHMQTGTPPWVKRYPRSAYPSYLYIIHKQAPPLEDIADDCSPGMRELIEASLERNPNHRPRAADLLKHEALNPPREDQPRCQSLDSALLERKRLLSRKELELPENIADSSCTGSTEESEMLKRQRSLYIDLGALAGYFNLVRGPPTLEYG

Row | SMILES | residual activity [%]
80 | COc1cc2c(N3CCN(C(=O)Nc4ccc(OC(C)C)cc4)CC3)ncnc2cc1OCCCN1CCCCC1 | 93.2
81 | COc1cc2c(cc1OC)-c1[nH]nc(Nc3cccc(F)c3)c1C2 | 99.9
82 | O=c1cc(N2CCOCC2)oc2c(-c3ccccc3)cccc12 | 98.2
83 | COc1cc2c(Nc3ccc(Br)cc3F)ncnc2cc1OCC1CCN(C)CC1 | 97.3

target: MKNK2 (human) (UniProt Q9HBH9); assay: as above; details: compound 0.5 µM; ATP 10 µM

Row | SMILES | residual activity [%]
84 | COc1cc2c(N3CCN(C(=O)Nc4ccc(OC(C)C)cc4)CC3)ncnc2cc1OCCCN1CCCCC1 | 99
85 | COc1cc2c(cc1OC)-c1[nH]nc(Nc3cccc(F)c3)c1C2 | 91.5

Reference: the kinase profiling compilation of Christmann-Franck et al. (2016)
